Holding throughout (type): cell-based
The target in assay [1] is T1, KCNQ1/KCNE1 (Homo sapiens, UniProt P51787).
T1 construct: human KCNQ1 co-expressed with KCNE1 (cDNA 1:2) in HEK cells, pIRES1-CD8; with Potassium voltage-gated channel subfamily E member 1
Briefly: whole-cell patch clamp, HEK cells, current at +[…] mV. The settings on record: HEK293. Background: In patch-clamp work, channel activity is measured electrically.

The target of assay [2] is T2, dKCNQ (Drosophila melanogaster, UniProt Q5PXF9).
T2 construct: gene KCNQ; full-length cDNA RE26469 in pIRES2-EGFP, expressed in HEK cells; homotetramer
T2 sequence (Q5PXF9 1-808): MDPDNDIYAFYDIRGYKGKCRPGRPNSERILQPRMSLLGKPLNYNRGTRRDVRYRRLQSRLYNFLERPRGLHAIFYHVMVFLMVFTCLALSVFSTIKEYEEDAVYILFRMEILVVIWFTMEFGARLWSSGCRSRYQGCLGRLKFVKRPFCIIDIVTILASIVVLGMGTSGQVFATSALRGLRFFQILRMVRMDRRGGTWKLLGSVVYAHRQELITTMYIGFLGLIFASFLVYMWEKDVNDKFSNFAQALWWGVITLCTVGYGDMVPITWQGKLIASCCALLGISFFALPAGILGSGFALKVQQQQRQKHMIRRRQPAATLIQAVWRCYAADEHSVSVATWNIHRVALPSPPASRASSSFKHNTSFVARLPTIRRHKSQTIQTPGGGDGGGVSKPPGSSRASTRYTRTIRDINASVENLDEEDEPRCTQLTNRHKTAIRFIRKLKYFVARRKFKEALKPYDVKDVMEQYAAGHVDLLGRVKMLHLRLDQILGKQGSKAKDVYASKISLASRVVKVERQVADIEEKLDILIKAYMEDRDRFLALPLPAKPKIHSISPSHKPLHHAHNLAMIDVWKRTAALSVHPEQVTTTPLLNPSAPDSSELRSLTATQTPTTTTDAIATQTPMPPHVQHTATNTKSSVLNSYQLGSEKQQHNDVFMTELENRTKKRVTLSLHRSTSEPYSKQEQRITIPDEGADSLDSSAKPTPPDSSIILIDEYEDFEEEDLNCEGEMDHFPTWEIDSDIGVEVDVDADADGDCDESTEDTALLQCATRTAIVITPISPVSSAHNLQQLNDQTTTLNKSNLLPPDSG
The assay is described as above.

Assay [3] deals with T3, KCNQ2/3 (Rattus norvegicus, UniProt O88943+O88944).
T3 construct: rat KCNQ2 and KCNQ3 cDNAs in pcDNA3.1 co-transfected 1:1 in HEK cells; heterotetramer
Described as above. The settings on record: HEK293.

Assay [4] addresses T2, dKCNQ. Described as above. The settings on record: HEK293.
Assay [5] has as its target T3, KCNQ2/3. Briefly: whole-cell patch clamp, HEK cells, current at −[…] mV. As to conditions: opener; at −30 mV; activation V0.5 shifted by −24 mV; pH 7.2; room temperature.

T3 sequence (O88943 whole entry): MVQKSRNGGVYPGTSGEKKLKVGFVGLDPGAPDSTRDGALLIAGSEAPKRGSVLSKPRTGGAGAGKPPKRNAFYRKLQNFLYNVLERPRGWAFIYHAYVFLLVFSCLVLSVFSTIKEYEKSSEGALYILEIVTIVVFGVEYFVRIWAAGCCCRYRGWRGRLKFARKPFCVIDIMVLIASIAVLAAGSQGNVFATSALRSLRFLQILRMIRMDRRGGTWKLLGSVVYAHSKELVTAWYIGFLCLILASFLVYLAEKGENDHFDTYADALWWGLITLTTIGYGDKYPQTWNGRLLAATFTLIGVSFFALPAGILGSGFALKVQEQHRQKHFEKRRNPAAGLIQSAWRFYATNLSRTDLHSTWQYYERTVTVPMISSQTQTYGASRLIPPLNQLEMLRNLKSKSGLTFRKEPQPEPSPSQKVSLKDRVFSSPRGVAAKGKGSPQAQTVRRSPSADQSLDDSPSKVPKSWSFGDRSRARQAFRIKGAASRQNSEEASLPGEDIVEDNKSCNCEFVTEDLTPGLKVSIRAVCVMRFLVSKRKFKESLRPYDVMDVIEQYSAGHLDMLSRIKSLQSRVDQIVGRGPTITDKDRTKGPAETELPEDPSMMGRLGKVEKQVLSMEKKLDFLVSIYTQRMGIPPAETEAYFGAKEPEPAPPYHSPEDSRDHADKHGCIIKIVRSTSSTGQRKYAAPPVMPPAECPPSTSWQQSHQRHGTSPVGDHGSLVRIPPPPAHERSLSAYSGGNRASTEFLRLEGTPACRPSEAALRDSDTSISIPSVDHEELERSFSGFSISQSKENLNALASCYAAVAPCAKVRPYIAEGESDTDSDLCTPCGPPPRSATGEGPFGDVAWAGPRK
T3 sequence (O88944 whole entry): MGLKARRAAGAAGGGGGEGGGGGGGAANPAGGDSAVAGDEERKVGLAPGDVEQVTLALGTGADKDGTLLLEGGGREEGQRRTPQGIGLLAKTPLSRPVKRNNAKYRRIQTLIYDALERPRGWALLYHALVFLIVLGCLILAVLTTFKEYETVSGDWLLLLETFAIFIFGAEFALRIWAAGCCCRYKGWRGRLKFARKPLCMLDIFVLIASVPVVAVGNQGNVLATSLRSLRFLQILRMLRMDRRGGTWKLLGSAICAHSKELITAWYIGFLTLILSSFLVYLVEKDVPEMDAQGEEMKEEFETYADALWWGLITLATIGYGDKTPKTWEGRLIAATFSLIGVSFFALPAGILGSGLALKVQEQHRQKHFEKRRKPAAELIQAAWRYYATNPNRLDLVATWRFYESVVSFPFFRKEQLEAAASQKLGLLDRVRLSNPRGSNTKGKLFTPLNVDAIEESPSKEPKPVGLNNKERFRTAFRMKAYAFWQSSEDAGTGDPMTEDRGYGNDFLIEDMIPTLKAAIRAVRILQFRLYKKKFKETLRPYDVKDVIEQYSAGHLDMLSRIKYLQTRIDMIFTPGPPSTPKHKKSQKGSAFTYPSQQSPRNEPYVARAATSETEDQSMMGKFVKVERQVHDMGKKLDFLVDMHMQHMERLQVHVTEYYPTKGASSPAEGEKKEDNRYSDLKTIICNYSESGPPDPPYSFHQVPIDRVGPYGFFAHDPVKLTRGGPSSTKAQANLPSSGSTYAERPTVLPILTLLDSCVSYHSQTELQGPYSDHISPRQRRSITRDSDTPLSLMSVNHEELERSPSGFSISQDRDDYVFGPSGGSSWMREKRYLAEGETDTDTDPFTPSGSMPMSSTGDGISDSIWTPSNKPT
T1 sequence (P51787 whole entry): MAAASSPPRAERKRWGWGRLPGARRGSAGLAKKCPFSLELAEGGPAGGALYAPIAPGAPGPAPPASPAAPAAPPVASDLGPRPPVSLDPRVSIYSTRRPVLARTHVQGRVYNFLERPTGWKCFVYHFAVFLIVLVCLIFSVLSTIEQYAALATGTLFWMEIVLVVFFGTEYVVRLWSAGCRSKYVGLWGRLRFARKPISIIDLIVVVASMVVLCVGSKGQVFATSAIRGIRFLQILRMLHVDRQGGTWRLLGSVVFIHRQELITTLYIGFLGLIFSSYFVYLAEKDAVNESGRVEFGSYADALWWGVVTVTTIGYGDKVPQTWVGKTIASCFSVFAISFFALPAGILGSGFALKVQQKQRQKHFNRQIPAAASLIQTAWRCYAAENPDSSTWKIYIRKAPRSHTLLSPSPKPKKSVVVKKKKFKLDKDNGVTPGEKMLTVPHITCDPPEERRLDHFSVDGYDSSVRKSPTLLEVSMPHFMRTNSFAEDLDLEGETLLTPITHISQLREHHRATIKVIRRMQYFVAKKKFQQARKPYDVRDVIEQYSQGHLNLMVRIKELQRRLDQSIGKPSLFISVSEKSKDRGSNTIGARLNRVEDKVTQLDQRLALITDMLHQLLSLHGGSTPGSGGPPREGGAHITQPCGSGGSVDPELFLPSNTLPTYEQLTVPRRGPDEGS

In general, inhibition refers to the drop in the measured response relative to a control, in per cent. Read a high inhibition as a strong effect. For orientation: IC50 means the concentration that inhibits the measured activity by half. Higher therefore signals lower potency. Take `CCS(=O)(=O)N(C)C1c2cc(C#N)ccc2OC(C)(C)C1O` (stereo not shown) [chromanol 293B]: the inhibition at 10 µM in assay [1] is ~56%. The IC50 in assay [2] is 13 ± 3.6 µM.

Take `O=C1N(c2ccccc2)c2ccccc2C1(Cc1ccncc1)Cc1ccncc1` [linopirdine]: the inhibition at 10 µM in assay [3] is ~40%; in assay [4], ~30%.

Consider `O=C1c2ccccc2C(Cc2ccncc2)(Cc2ccncc2)c2ccccc21` [XE991, 10,10-bis(4-Pyridinylmethyl)-9(10H)-anthracenone], for which the inhibition at 10 µM in assay [3] is ~50%. For the same molecule, in assay [2], half-maximal inhibition (IC50) was put at 5.5 ± 1.1 µM.

As to `CCOC(=O)Nc1ccc(NCc2ccc(F)cc2)cc1N` [retigabine], in assay [5], the “% current enhancement at 10 μM” value is ~ 35%.

The record behind these values is article PMC3168433, “Drosophila KCNQ Channel Displays Evolutionarily Conserved Electrophysiology and Pharmacology with Mammalian KCNQ Channels” (PLoS ONE, 2011).
